The values below come from patent US11098010B2 (priority 2017, dated 2021).

This test relates to HBV rcDNA in HepDE19 cells. The experiment in a line: HepDE19 assay with bDNA quantitation of HBV rcDNA. Type of test: cell-based, hepatitis B virus (HBV).
The mark [1] stands for this setting: Hepatitis B virus, HepDE19, 168 h, HepDE19 cells, inhibition of rcDNA formation, 7 day incubation, top concentration 25 μM, read-out: DE-19 bDNA EC50.
Setting [2] is: Hepatitis B virus, HepDE19, 168 h, read-out: DE-19 bDNA EC50 (μM), HepDE19 cells, inhibition of rcDNA formation, 7 day incubation, top concentration 25 μM.

Each structure is given as a SMILES string. Where a name gives a salt, the structure may show the parent alone. Read-outs that look alike come from different tables or passages of the source.

For `O=C(N[C@H]1CCc2c(C(=O)Nc3ccc(F)c(Cl)c3)ccc(F)c21)OCCO` [Compound 141, O-2-Hydroxyethyl, N—(S)-(4-((3-chloro-4-fluorophenyl)carbamoyl)-7-fluoro-2,3-dihydro-1H-inden-1-yl) carbamate], the EC50 under setting [1] came out at 0.18 µM.

In the case of `O=C(N[C@H]1CCc2c(C(=O)Nc3ccc(F)c(Cl)c3)ccc(F)c21)OC[C@@H]1CCCO1` [Compound 142, O—((S)-Tetrahydrofuran-2-yl)methyl, N—((S)-4-((3-chloro-4-fluorophenyl)carbamoyl)-7-fluoro-2,3-dihydro-1H-inden-1-yl) carbamate], under setting [2], the EC50 was determined as 0.27 µM.

For `O=C(CO)N[C@H]1CCc2c(C(=O)Nc3ccc(F)c(Cl)c3)ccc(F)c21` [Compound 143, (S)—N-(3-Chloro-4-fluorophenyl)-7-fluoro-1-(2-hydroxyacetamido)-2,3-dihydro-1H-indene-4-carboxamide], the EC50 under setting [1] stood at 1.5 µM.

On to `O=C(Nc1cccnc1)N[C@H]1CCc2c(C(=O)Nc3ccc(F)c(Cl)c3)ccc(F)c21` [Compound 144, (S)—N-(3-Chloro-4-fluorophenyl)-7-fluoro-1-(3-(pyridin-3-yl)ureido)-2,3-dihydro-1H-indene-4-carboxamide], for which, under setting [2], the EC50 is 0.85 µM.

For the compound `O=C(Nc1ccncc1)N[C@H]1CCc2c(C(=O)Nc3ccc(F)c(Cl)c3)ccc(F)c21` [Compound 145, (S)—N-(3-Chloro-4-fluorophenyl)-7-fluoro-1-(3-(pyridin-4-yl)ureido)-2,3-dihydro-1H-indene-4-carboxamide], the EC50 under setting [2] came to 0.93 µM.

As for `O=C(Nc1ccc(F)c(Cl)c1)c1ccc(F)c2c1CC[C@@H]2Nc1nccs1` [Compound 146, (S)—N-(3-Chloro-4-fluorophenyl)-7-fluoro-1-(thiazol-2-ylamino)-2,3-dihydro-1H-indene-4-carboxamide], the EC50 under setting [2] came to 0.24 µM.

As to `O=C(N[C@H]1CCc2c(C(=O)Nc3ccc(F)c(Cl)c3)ccc(F)c21)OCCN1CCCCC1` [Compound 147, O-2-(Piperidin-1-yl)ethyl, N—(S)-(4-((3-chloro-4-fluorophenyl)carbamoyl)-7-fluoro-2,3-dihydro-1H-inden-1-yl) carbamate], under setting [2], the EC50 was found to be 1.1 µM.

Turning to `O=C(N[C@H]1CCc2c(C(=O)Nc3ccc(F)c(C(F)F)c3)ccc(F)c21)OCc1ccccn1` [Compound 148, O-Pyridin-2-ylmethyl, N—(S)-(4-((3-(difluoromethyl)-4-fluorophenyl)carbamoyl)-7-fluoro-2,3-dihydro-1H-inden-1-yl)carbamate Hydrochloride], under setting [2], the EC50 came to 0.12 µM.

As for `O=C(NCc1ccccn1)N[C@H]1CCc2c(C(=O)Nc3ccc(F)c(Cl)c3)ccc(F)c21` [Compound 149, (S)—N-(3-chloro-4-fluorophenyl)-7-fluoro-1-(3-(pyridin-2-ylmethyl)ureido)-2,3-dihydro-1H-indene-4-carboxamide Hydrochloride], the EC50 under setting [2] turned out to be 0.21 µM.

Turning to `N#Cc1cccc(COC(=O)N[C@H]2CCc3c(C(=O)Nc4ccc(F)c(Cl)c4)ccc(F)c32)n1` [Compound 150, O-(6-Cyanopyridin-2-yl)methyl, N—(S)-(4-((3-chloro-4-fluorophenyl)carbamoyl)-7-fluoro-2,3-dihydro-1H-inden-1-yl)carbamate], under setting [1], the EC50 stood at 0.15 µM.

Consider `O=C(N[C@H]1CCc2c(C(=O)Nc3ccc(F)c(Cl)c3)ccc(F)c21)OCc1ccc2ccccc2n1` [Compound 151, O-Quinolin-2-ylmethyl, N—(S)-(4-((3-chloro-4-fluorophenyl)carbamoyl)-7-fluoro-2,3-dihydro-1H-inden-1-yl) carbamate], for which, under setting [2], the EC50 was 0.41 µM.

Regarding `Cc1cnc(COC(=O)N[C@H]2CCc3c(C(=O)Nc4ccc(F)c(Cl)c4)ccc(F)c32)cn1` [Compound 152, O-(5-Methylpyrazin-2-yl)methyl, N—(S)-(4-((3-chloro-4-fluorophenyl)carbamoyl)-7-fluoro-2,3-dihydro-1H-inden-1-yl)carbamate], under setting [2], the EC50 is 0.07 µM.

With `O=C(N[C@H]1CCc2c(C(=O)Nc3ccc(F)c(Cl)c3)ccc(F)c21)OCCN1CCOCC1` [Compound 153, O-2-Morpholinoethyl, N—(S)-(4-((3-chloro-4-fluorophenyl)carbamoyl)-7-fluoro-2,3-dihydro-1H-inden-1-yl) carbamate], the EC50 under setting [2] is 0.47 µM.

Consider `O=C(N[C@H]1CCc2c(C(=O)Nc3ccc(F)c(Cl)c3)ccc(F)c21)OC1CCC(O)CC1` (stereo partly drawn) [Compound 154, O-cis-4-Hydroxycyclohexyl, N—((S)-4-((3-chloro-4-fluorophenyl)carbamoyl)-7-fluoro-2,3-dihydro-1H-inden-1-yl) carbamate], for which, under setting [1], the EC50 stood at 0.35 µM.

`O=C(N[C@H]1CCc2c(C(=O)Nc3ccc(F)c(Cl)c3)ccc(F)c21)OCCCO` [Compound 155, O-3-Hydroxypropyl, N—(S)-(4-((3-chloro-4-fluorophenyl)carbamoyl)-7-fluoro-2,3-dihydro-1H-inden-1-yl) carbamate]: under setting [2], the EC50 amounted to 24 µM.

Consider `O=C(N[C@H]1CCc2c(C(=O)Nc3ccc(F)c(Cl)c3)ccc(F)c21)OC1CCC(O)CC1` (stereo partly drawn) [Compound 156, O-trans-4-Hydroxycyclohexyl, N—((S)-4-((3-chloro-4-fluorophenyl)carbamoyl)-7-fluoro-2,3-dihydro-1H-inden-1-yl) carbamate], for which the EC50 (read-out: DE-19 bDNA EC50, HepDE19 cells, inhibition of rcDNA formation, 7 day incubation, top concentration 25 μM) turned out to be 0.22 µM.

For `CC(=O)NCCOC(=O)N[C@H]1CCc2c(C(=O)Nc3ccc(F)c(Cl)c3)ccc(F)c21` [Compound 157, O-2-Acetamidoethyl, N—(S)-(4-((3-chloro-4-fluorophenyl)carbamoyl)-7-fluoro-2,3-dihydro-1H-inden-1-yl) carbamate], the EC50 under setting [2] was 0.26 µM.

As for `CCC(=O)N[C@H]1CCc2c(C(=O)Nc3ccc(F)c(Cl)c3)ccc(F)c21` [Compound 158, (S)-N-(3-chloro-4-fluorophenyl)-7-fluoro-1-propionamido-2,3-dihydro-1H-indene-4-carboxamide], the EC50 under setting [1] was determined as 0.81 µM.

With `COc1ccnc(N[C@H]2CCc3c(C(=O)Nc4ccc(F)c(Cl)c4)ccc(F)c32)n1` [Compound 159, (S)—N-(3-Chloro-4-fluorophenyl)-7-fluoro-1-((4-methoxypyrimidin-2-yl)amino)-2,3-dihydro-1H-indene-4-carboxamide], the EC50 under setting [2] amounted to 0.69 µM.

For the compound `Cc1ccnc(N[C@H]2CCc3c(C(=O)Nc4ccc(F)c(Cl)c4)ccc(F)c32)n1` [Compound 160], the EC50 under setting [2] was 0.25 µM.

As to `COc1nccc(N[C@H]2CCc3c(C(=O)Nc4ccc(F)c(Cl)c4)ccc(F)c32)n1` [Compound 161, (S)—N-(3-Chloro-4-fluorophenyl)-7-fluoro-1-((2-methoxypyrimidin-4-yl)amino)-2,3-dihydro-1H-indene-4-carboxamide], the EC50 under setting [2] came to 0.27 µM.

With `Cc1cnc(N[C@H]2CCc3c(C(=O)Nc4ccc(F)c(Cl)c4)ccc(F)c32)nc1` [Compound 162, (S)—N-(3-Chloro-4-fluorophenyl)-7-fluoro-1-((5-methylpyrimidin-2-yl)amino)-2,3-dihydro-1H-indene-4-carboxamide], the EC50 under setting [2] amounted to 0.15 µM.

As for `COc1cc(N[C@H]2CCc3c(C(=O)Nc4ccc(F)c(Cl)c4)ccc(F)c32)ncn1` [Compound 163, (S)—N-(3-Chloro-4-fluorophenyl)-7-fluoro-1-((6-methoxypyrimidin-4-yl)amino)-2,3-dihydro-1H-indene-4-carboxamide], the EC50 under setting [2] came to 0.07 µM.

Regarding `Cc1cc(C)nc(N[C@H]2CCc3c(C(=O)Nc4ccc(F)c(Cl)c4)ccc(F)c32)n1` [Compound 164, (S)—N-(3-Chloro-4-fluorophenyl)-1-((4,6-dimethylpyrimidin-2-yl)amino)-7-fluoro-2,3-dihydro-1H-indene-4-carboxamide], under setting [2], the EC50 worked out at 1 µM.

In the case of `CNC(=O)N[C@@H]1c2cccc(C(=O)Nc3ccc(F)c(Cl)c3)c2C[C@H]1OC` [Compound 165, (1R,2R)—N-(3-Chloro-4-fluorophenyl)-2-methoxy-1-(3-methylureido)-2,3-dihydro-1H-indene-4-carboxamide], the EC50 under setting [2] worked out at 0.33 µM.

As for `O=C1C[C@H](OC(=O)N[C@H]2CCc3c(C(=O)Nc4ccc(F)c(Cl)c4)ccc(F)c32)CN1` [Compound 166, O—(S)-5-Oxopyrrolidin-3-yl, N—((S)-4-((3-chloro-4-fluorophenyl)carbamoyl)-7-fluoro-2,3-dihydro-1H-inden-1-yl) carbamate], the EC50 under setting [1] was determined as 0.14 µM.

As for `O=C(Nc1ccc(F)c(Cl)c1)c1ccc(F)c2c1CC[C@@H]2NS(=O)(=O)CCc1ccccn1` [Compound 167, (S)—N-(3-Chloro-4-fluorophenyl)-7-fluoro-1-((2-(pyridin-2-yl)ethyl)sulfonamido)-2,3-dihydro-1H-indene-4-carboxamide Hydrochloride], under setting [2], the EC50 was 0.29 µM.

Consider `O=C(N[C@H]1CCc2c(C(=O)Nc3ccc(F)c(Cl)c3)ccc(F)c21)OCc1cccc(C(F)(F)F)n1` [Compound 168, O-(6-(Trifluoromethyl)pyridin-2-yl)methyl, N—(S)-(4-((3-chloro-4-fluorophenyl)carbamoyl)-7-fluoro-2,3-dihydro-1H-inden-1-yl) carbamate], for which the EC50 under setting [2] is 0.62 µM.

Regarding `O=C(N[C@H]1CCc2c(C(=O)Nc3ccc(F)c(Cl)c3)ccc(F)c21)OCc1ccc(C(F)(F)F)cn1` [Compound 169, O-(5-(Trifluoromethyl)pyridin-2-yl)methyl, N—(S)-(4-((3-chloro-4-fluorophenyl)carbamoyl)-7-fluoro-2,3-dihydro-1H-inden-1-yl) carbamate], the EC50 under setting [2] was 2.2 µM.

Regarding `O=C(N[C@H]1CCc2c(C(=O)Nc3ccc(F)c(Cl)c3)ccc(F)c21)O[C@@H]1CCOC1` [Compound 170, O—(R)-Tetrahydrofuran-3-yl, N—((S)-4-((3-chloro-4-fluorophenyl)carbamoyl)-7-fluoro-2,3-dihydro-1H-inden-1-yl) carbamate], under setting [1], the EC50 was determined as 0.26 µM.

As for `Cn1ccc(CCC(=O)N[C@H]2CCc3c(C(=O)Nc4ccc(F)c(Cl)c4)ccc(F)c32)n1` [Compound 171, (S)—N-(3-Chloro-4-fluorophenyl)-7-fluoro-1-(3-(1-methyl-1H-pyrazol-3-yl)propanamido)-2,3-dihydro-1H-indene-4-carboxamide], the EC50 under setting [1] is 0.13 µM.
